We go through ten molecules from patent publication US10472677B2, “Translational dysfunction based therapeutics” (Translational Therapeutics, Inc., priority 2005, dated 2019).

Experiment [1] addresses T1, nuclear eIF4E-cyclin D1 mRNA association (Homo sapiens, UniProt P06730).
T1 construct: endogenous in cells; host or cells: HEK293T cells, nuclear lysate
The experiment can be described thus: eIF4E immunoprecipitation from nuclear lysates with cap analogue competition, RT-PCR. To be noted: 50 uM analogue. The format is biochemical.

For the next experiment, the system named is cap-driven translation. To be noted: cited from earlier work.
In the next experiment the test system is 4E-SE mRNA export. Kind of experiment: export of LacZ-4E-SE mRNA (c/n ratio, real time PCR) in eIF4E overexpressing U2OS cells. The experiment is classed as cell-based, human. The conditions noted are these: for export of 4E-SE containing / cyclin D1 mRNA under inhibition of RNA or protein synthesis: actinomycin D 10 μg/ml, cycloheximide 100 μg/ml, 1 hour. The method, then: eIF4E and PML stably transfected NIH3T3 and U937 cells were as described (Topisirovic et al., 2002; Topisirovic et al., 2003a). U937 cells were used to analyze endogenous Pim1, which is not expressed in NIH3T3 cells. LacZ/LacZ-4E-SE with or without 2Flag-eIF4E as well as TetON LacZ system were stably transfected in U2OS cells. For NXF1 depletion, U2OS cells were transfected with Lipofectamine 2000 and 10 nM siRNA duplex HSC.RNAI.N006362.1.3 (IDT) according to the manufacturer's instruction. Cells were analyzed 72 h after transfection. Actinomycin D, cycloheximide and leptomycin B were all cell culture grade (Sigma).
Immunopurification was as previously published (Culjkovic et al., 2005). Real Time PCR analyses were performed using Sybr Green PCR Master mix (ABI) in Mx3000P™ thermal cycler (Stratagene), and data analyzed with MxPro software (Stratagene). All conditions were described previously (Culjkovic et al., 2005). All calculations were done using the relative standard curve method described in Applied Biosystems User Bulletin #2.
Fractionation and RNA isolation were as described (Lai and Borden, 2000; Topisirovic et al., 2002). Probes for U6 and tRNAlys for Northern blot analysis were previously described (Topisirovic et al., 2002).
(Quantitative PCR measures a nucleic acid by following its amplification.)

The target of a further experiment is eIF4E (Homo sapiens, UniProt P06730). To be noted: cited from earlier work.
Chain of eIF4E (P06730 whole entry, species assumed): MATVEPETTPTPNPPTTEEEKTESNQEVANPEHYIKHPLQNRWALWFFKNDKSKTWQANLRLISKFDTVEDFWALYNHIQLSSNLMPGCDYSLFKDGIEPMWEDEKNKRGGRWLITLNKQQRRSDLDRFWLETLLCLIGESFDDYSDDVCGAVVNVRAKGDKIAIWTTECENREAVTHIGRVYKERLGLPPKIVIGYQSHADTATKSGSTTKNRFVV
The target of a further experiment is HCV polymerase (Hepatitis C virus genotype 1a, UniProt P27958). The conditions noted are these: read-out: dissociation constant for HCV polymerase; cited from earlier work.
Chain of HCV polymerase (P27958 2421-3011): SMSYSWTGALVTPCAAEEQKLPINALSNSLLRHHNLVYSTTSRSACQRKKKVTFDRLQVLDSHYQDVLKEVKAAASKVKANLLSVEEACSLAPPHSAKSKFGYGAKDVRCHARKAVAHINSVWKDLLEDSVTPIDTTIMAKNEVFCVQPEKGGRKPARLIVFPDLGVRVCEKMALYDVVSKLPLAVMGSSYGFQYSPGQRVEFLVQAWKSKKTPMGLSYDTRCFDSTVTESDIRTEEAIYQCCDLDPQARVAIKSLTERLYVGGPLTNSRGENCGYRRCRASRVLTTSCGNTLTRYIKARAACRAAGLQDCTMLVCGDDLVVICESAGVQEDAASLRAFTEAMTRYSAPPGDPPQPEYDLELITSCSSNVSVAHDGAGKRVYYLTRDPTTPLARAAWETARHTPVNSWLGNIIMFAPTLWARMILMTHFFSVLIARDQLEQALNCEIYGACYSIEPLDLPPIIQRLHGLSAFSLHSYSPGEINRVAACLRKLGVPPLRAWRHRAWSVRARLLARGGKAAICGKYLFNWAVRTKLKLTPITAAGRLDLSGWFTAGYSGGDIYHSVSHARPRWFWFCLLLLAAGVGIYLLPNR
In the next experiment the target is T2, eIF4E:m7G binding (G4E) (UniProt P06654+P63073).
T2 construct: made in house; host or cells: E. coli BL21 (DE-3); construct a gift of Gerhard Wagner
T2 sequence (P06654+P63073 fused): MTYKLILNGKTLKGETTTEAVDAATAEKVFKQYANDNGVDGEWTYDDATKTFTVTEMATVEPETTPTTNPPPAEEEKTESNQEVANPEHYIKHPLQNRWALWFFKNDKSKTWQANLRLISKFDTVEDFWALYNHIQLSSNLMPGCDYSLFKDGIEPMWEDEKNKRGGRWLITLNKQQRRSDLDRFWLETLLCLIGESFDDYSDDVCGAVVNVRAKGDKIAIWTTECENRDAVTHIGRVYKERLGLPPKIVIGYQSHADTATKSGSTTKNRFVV
Kind of experiment: m7G-Sepharose affinity chromatography competition. The arrangement: species or system mouse. The protocol:
FIG. 9. […] Washed beads (three times with 75 bed volumes) were incubated with 50 uM of compounds as indicated for 30 min at room temperature. Beads were washed (three times with 75 bed volumes) to remove dissociated eIF4E, and eIF4E remaining bound to beads was resolved using SDS-PAGE, and visualized using Western blotting and chemiluminescence. […] Washed beads (five times with 50 bed volumes of LCB buffer) were incubated with 5 bed volumes of 50 uM of compounds as indicated for 20 min at 4° C. Then 20 uL of the supernatant containing dissociated eIF4E was transferred to a new tube, cleared of trace beads containing bound eIF4E, and resolved using SDS-PAGE, and visualized using Western blotting and chemiluminescence.
m^7G-Sepharose beads (Amersham Pharmacia, 20-μl slurry) were bound with 1.5 ml of 2 μM G4E, purified as described above, in 0.3 M NaCl/0.1 M sodium phosphate (pH 7.5)/10 μM protease-free BSA (USB)/0.1% Nonidet P-40 (Buffer B) for 30 min at room temperature. […] Upon washing released G4E three times with Buffer B, G4E remaining bound to m^7G-Sepharose was boiled in Laemmli buffer (10% glycerol/2% SDS/100 mM DTT/80 mM Tris.HCl/0.06% bromophenol blue, pH 6.8), subjected to SDS/PAGE, and visualized by using Western blotting, as described below.

The next experiment concerns the target T3, eIF4E wild-type (Mus musculus, UniProt P63073).
T3 construct: made in house
Kind of experiment: tryptophan fluorescence quenching titration of nucleoside/nucleotide binding. The protocol:
For fluorescence titrations, mouse eIF4E, which differs from human eIF4E by four nonconserved amino acids, was produced as described. For NMR spectroscopy, mouse eIF4E was expressed as a fusion with the B1 domain of protein G (G4E, kind gift of Gerhard Wagner, Harvard University, Cambridge, Mass.), in BL21 (DE-3) cells by induction with 0.8 mM isopropyl-β-D-thiogalactopyranoside at 18° C. for 20 h in M9 minimal media containing 1 g/l ^15NH4Cl as the sole nitrogen source (Cambridge Isotopes). Cells were lysed at 4° C. by sonication in 0.1 M NaCl/50 mM Tris.HCl (pH 7.5/0.5 mM EDTA/0.5% (vol/vol) Nonidet P-40/10 mM 2-mercaptoethanol/1 mM PMSF. Lysates were cleared by centrifugation at 30,000×g, adsorbed onto m^7G diphosphate-conjugated agarose (Amersham Pharmacia), and extensively washed with 0.1 M NaCl/20 mM Tris.HCl (pH 7.5)/0.5 mM EDTA (Buffer A) at 4° C. Subsequently, beads were washed with 0.1 mM GTP in Buffer A, and G4E was eluted with 5 mM m^7G in Buffer A. Eluate was diluted with 20 mM Na2PO4 (pH 7.5) to reduce NaCl concentration to 50 mM, applied to Sepharose Q anion exchange column (Amersham Pharmacia), and eluted with a linear gradient of NaCl in 20 mM Na2PO4 (pH 7.5) at 4° C. Eluate was dialyzed extensively against 0.1 M NaCl/50 mM Na2PO4 (pH 6.5)/5 mM DTT at 4° C. to produce apo-G4E, as verified by using NMR spectroscopy and fluorescence titrations. Purity and identity of G4E were verified by using SDS/PAGE and electrospray ionization MS. Proteins were concentrated by using Amicon concentrators (Millipore).
Fluorescence measurements were performed by using a home-built fluorimeter, as described. All titrations were performed in 0.3 M NaCl/10 mM Na2PO4 (pH 7.5)/1 μM zinc in 0.3×0.3 cm^2 fluorescence cuvette (Hellma), by using eIF4E concentration of 2 μM. […] Corrected relative fluorescence intensities were normalized, and fluorescence quenching curves were fit to a heuristic single-site-binding expression: I/I0=Kd^n/(x^n+Kd^n) where x is ligand concentration, Kd is the apparent dissociation constant, and n is the Hill coefficient.

Experiment [2] deals with cap-binding complex (CBC) (Homo sapiens, UniProt P52298). To be noted: cited from earlier work.
Chain of cap-binding complex (CBC) (P52298 whole entry): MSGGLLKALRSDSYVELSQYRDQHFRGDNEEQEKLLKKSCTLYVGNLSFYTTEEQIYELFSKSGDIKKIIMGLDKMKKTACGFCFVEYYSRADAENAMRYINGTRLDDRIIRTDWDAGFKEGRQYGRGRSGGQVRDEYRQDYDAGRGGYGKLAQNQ
Chain of cap-binding complex (CBC) (Q09161 whole entry partner): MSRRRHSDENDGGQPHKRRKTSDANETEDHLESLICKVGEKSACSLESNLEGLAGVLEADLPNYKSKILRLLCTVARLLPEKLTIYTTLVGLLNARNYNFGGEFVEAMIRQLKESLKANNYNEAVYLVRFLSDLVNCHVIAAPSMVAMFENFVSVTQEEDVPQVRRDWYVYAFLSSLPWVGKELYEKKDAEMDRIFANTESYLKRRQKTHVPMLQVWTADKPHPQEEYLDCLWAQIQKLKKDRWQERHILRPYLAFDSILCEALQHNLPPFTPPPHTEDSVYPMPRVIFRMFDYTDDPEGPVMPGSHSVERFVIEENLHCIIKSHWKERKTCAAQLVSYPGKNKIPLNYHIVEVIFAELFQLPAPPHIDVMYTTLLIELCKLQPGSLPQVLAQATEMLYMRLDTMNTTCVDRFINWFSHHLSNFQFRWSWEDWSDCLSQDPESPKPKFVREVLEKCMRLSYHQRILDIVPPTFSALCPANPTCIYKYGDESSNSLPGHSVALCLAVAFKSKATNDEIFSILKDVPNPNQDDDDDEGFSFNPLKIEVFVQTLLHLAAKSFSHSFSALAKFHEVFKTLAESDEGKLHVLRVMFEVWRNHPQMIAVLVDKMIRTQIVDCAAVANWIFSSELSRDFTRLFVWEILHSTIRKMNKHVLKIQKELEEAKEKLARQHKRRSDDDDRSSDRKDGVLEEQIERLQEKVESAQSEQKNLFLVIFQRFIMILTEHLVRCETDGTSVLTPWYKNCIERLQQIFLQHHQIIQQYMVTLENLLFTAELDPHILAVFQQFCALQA

Molecules are shown by their SMILES. Where “and” joins values, the source holds several entries; their conditions need not be identical. Equal entries are not always repeated. Entries after “also recorded” stand apart in the source; their conditions may differ. Starred links: 1 amine or outer side, 2 acyl side, 3 side chain; linkers in the order of their positions; H or OH if unused. Positions of bridges follow the written chain, without caps; N, C: chain ends. Non-standard residues stand in square brackets, D forms with d. Residues, ends and D or L forms follow the SMILES beside them. Chains are numbered I, II in the order given. Actinocin(9to1) = Cc1c2oc3c(C)ccc(C(=O)[*:1])c3nc-2c(C(=O)[*:2])c(N)c1=O; NMeV = CN[C@H](C(=O)O)C(C)C; Sar = CNCC(=O)O

T3 sequence (P63073 whole entry): as the sequence (P06730 whole entry, species assumed) above, with P12T, T16P, T17A, E174D counted along it
T1 sequence (P06730 2-217 limits assumed): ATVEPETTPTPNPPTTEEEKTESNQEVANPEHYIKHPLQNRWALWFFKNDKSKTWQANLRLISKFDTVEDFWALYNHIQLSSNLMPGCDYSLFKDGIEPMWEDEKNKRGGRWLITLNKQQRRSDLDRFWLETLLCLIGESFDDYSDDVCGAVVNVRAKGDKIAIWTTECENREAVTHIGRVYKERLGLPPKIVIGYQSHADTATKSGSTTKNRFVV

With `Nc1nc2c(ncn2[C@@H]2O[C@H](COP(=O)(O)OP(=O)(O)OP(=O)(O)OC[C@H]3O[C@@H](n4cnc5c(=O)[nH]c(N)nc54)[C@H](O)[C@@H]3O)[C@@H](O)[C@H]2O)c(=O)[nH]1` [GpppG], in experiment [1], the “association of cyclin D1 mRNA with nuclear eIF4E” value is listed as “does not disrupt”.
For the molecule `NC(=O)c1ncn(C2OC(COP(=O)(O)OP(=O)(O)OP(=O)(O)OCC3OC(n4cnc5c(=O)[nH]c(N)nc54)C(O)C3O)C(O)C2O)n1` (centres unmarked) [RpppG], the “inhibition of cap-driven translation” value with cap-driven translation (Westman et al. 2005) was “does not”.
Turning to `CCC(=C/[C@H](C)C/C=C/C(C)=C/[C@@H](C)C(=O)[C@@H](C)[C@H](O)[C@@H](C)C/C(C)=C/C(=O)O)/C=C/[C@@H]1OC(=O)C=C[C@@H]1C` [LMB], in the experiment with 4E-SE mRNA export (10 ng/ml for 4 h), the “export of LacZ-4E-SE mRNA” value is “sensitive to LMB; also recorded: suppressed export”.
`Cn1c[n+]([C@@H]2O[C@H](COP(=O)(O)OP(=O)([O-])O)[C@@H](O)[C@H]2O)c2nc(N)[nH]c(=O)c21` [m7GDP]: the “reduction of cap-driven firefly luciferase activity” value with cap-driven translation (1 mM, Yan et al. 2005) is given as “fourfold”.
With `Nc1nc2c(ncn2[C@@H]2O[C@H](CO)[C@@H](O)[C@H]2O)c(=O)[nH]1` [guanosine], the “binding to eIF4E relative to m7G cap, fold weaker” value on eIF4E was > 5000 fold.
As to `NC(=O)c1ncn([C@@H]2O[C@H](CO[P@@](=O)(O)O[P@](=O)(O)OP(=O)(O)O)[C@@H](O)[C@H]2O)n1` [RTP, Ribavirin-5′ triphosphate], the Kd on HCV polymerase was 580 µM; at eIF4E wild-type (fluorescence spectroscopy, wild-type eIF4E, read-out: apparent dissociation constant (Kd) for eIF4E) it was 0.13 µM and ~0.1 µM. Further, the “competition with m7G binding, protocol of Yan et al.” value at eIF4E:m7G binding (G4E) (0.1 M KCl, 10 mM HEPES-KOH pH 8.0, presumed 4 C) is given as “apparent failure of RTP to compete”. Also, the “competition with eIF4E:m7G binding” value on eIF4E:m7G binding (G4E) (0.3 M NaCl, 0.1 M sodium phosphate pH 7.5, room temperature, micromolar concentrations) is “compete with the binding of eIF4E:m7G”. For the same molecule, the IC50 at eIF4E:m7G binding (G4E) (Western blot of eIF4E remaining bound, read-out: concentration giving 50% reduction of eIF4E binding to m7G-Sepharose) was ~1 µM. At eIF4E:m7G binding (G4E) (read-out: apparent inhibition constant (Ki) of eIF4E:m7G binding), the Ki was ~0.3 µM.
With `C[C@@H]1C[C@@H]([C@H](O)CC2CC(=O)NC(=O)C2)C(=O)[C@@H](C)C1` [cycloheximide], in the experiment with 4E-SE mRNA export, the “export of 4E-SE containing / cyclin D1 mRNA under inhibition of RNA or protein synthesis” value is “not modulated”.
For `NC(=O)c1cn([C@@H]2O[C@H](CO)[C@@H](O)[C@H]2O)nn1` [Rib4C, 1-β-D-ribofuranosyl-1,2,3-triazole-4-carboxamide], the “binding to eIF4E” value at eIF4E wild-type (in vitro) is on record as “failed to bind eIF4E”.
For the molecule `Cn1c[n+]([C@@H]2O[C@H](COP(=O)(O)OP(=O)([O-])OP(=O)(O)OC[C@H]3O[C@@H](n4cnc5c(=O)[nH]c(N)nc54)[C@H](O)[C@@H]3O)[C@@H](O)[C@H]2O)c2nc(N)[nH]c(=O)c21` [m7GpppG], the “association of cyclin D1 mRNA with nuclear eIF4E” value in experiment [1] is recorded as “successfully disrupts”. Further, the Kd in experiment [2] is ~0.01 µM. Moreover, in the experiment with cap-driven translation (Westman et al. 2005), the “analog concentration inhibiting cap-driven translation” value is recorded as “ca. 0.1 mM”.
As to `Cc1c2oc3c(C)ccc(C(=O)N[C@@H]4C(=O)N[C@H](C(C)C)C(=O)N5CCC[C@H]5C(=O)N(C)CC(=O)N(C)[C@@H](C(C)C)C(=O)O[C@@H]4C)c3nc-2c(C(=O)N[C@@H]2C(=O)N[C@H](C(C)C)C(=O)N3CCC[C@H]3C(=O)N(C)CC(=O)N(C)[C@@H](C(C)C)C(=O)O[C@@H]2C)c(N)c1=O` [actinomycin D] (I: T[dV]P[Sar][NMeV] / II: T[dV]P[Sar][NMeV]; ester I:1-I:C, II:1-II:C; linker I:N-II:N via Actinocin(9to1)), the “export of 4E-SE containing / cyclin D1 mRNA under inhibition of RNA or protein synthesis” value with 4E-SE mRNA export is on record as “did not affect export”.
